What was measured:
Assay type in all cases: biochemical
PDE4A1A = molecular target: T1, PDE4A1A (Homo sapiens, UniProt P27815); assay: PDE4 inhibitory activity assay (FAM-cAMP enzymatic reaction), PDE4A1A; settings: for inhibitory activity against PDE4A1A compared with Apremilast and WX011: compared with Apremilast and Example 11 of WO2018036470 (WX011)
T1 construct: purchased BPS 60040
In short: (§1)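 Inhibition rates from a fluorescence read gave IC50 values. Each enzyme (PDE4A1A, PDE4B1, PDE4D2) sat with compound for 15 min at room temperature; FAM-cAMP then started a 30 min room-temperature reaction, ended with stop solution and left 60 min more.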

PDE4B1 = molecular target: T2, PDE4B1 (Homo sapiens, UniProt Q07343); assay: PDE4 inhibitory activity assay (FAM-cAMP enzymatic reaction), PDE4B1; settings: for inhibitory activity against PDE4B1 compared with Apremilast and WX011: compared with Apremilast and Example 11 of WO2018036470 (WX011)
T2 construct: purchased BPS 60041
T2 sequence (Q07343 whole entry): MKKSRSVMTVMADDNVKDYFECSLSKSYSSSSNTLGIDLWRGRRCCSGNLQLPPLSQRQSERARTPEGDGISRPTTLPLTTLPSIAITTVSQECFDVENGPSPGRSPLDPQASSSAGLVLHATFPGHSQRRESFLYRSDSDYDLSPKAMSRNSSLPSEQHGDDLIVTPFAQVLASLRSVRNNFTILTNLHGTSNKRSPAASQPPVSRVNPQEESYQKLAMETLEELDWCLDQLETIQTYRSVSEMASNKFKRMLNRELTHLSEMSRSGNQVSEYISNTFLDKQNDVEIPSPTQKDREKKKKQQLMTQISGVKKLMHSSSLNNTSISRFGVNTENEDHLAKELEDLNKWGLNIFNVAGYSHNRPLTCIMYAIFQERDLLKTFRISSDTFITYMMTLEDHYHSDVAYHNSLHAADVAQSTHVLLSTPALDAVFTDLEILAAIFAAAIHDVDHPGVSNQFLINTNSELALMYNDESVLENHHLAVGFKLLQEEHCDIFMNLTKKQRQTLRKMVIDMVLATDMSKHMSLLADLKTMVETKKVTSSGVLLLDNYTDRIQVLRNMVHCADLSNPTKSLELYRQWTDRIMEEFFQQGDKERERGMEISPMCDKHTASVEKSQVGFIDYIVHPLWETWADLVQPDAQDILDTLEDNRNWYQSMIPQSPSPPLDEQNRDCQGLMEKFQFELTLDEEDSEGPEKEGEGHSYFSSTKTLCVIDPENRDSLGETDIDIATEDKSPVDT
In short: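 Each isoform is incubated with test compound for 15 min at room temperature before FAM-cAMP substrate starts a 30-min reaction.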

PDE4D2 = PDE4D2 (Homo sapiens, UniProt Q08499); assay: PDE4 inhibitory activity assay (FAM-cAMP enzymatic reaction), PDE4D2; settings: for inhibitory activity against PDE4D2 compared with Apremilast and WX011: compared with Apremilast and Example 11 of WO2018036470 (WX011)
Chain of PDE4D2 (Q08499 303-809): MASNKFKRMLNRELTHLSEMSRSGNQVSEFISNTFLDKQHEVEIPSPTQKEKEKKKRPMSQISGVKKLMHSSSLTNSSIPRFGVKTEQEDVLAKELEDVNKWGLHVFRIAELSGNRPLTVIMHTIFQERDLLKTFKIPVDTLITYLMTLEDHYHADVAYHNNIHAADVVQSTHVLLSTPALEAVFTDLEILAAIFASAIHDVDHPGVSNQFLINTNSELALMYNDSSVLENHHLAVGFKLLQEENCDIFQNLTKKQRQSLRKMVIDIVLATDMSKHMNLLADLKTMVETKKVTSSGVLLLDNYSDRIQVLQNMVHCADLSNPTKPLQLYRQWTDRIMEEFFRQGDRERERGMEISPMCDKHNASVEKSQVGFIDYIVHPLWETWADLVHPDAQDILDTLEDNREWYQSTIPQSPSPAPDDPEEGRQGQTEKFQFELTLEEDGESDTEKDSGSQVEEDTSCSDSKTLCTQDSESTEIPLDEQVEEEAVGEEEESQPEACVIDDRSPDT
In short: as §1

T1 sequence (P27815 1-647 isoform P27815-4): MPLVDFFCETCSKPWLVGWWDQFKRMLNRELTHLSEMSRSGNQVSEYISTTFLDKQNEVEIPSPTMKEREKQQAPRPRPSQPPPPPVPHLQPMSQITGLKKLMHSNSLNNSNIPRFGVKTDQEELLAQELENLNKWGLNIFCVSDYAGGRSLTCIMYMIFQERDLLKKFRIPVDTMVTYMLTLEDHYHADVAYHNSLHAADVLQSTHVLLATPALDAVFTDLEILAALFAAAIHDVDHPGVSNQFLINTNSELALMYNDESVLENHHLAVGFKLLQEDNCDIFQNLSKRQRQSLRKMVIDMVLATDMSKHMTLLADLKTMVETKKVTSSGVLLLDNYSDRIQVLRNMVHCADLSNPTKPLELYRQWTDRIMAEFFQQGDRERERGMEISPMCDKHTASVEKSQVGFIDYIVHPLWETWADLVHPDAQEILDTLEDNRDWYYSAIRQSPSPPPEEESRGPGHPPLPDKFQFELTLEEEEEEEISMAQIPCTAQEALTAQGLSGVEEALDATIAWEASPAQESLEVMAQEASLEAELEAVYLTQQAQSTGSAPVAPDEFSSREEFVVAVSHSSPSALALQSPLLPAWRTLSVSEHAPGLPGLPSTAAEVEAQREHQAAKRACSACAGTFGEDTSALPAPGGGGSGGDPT

| Structure (SMILES) | PDE4 A1 inhibitory effect at 20 nM (PDE4A1A) | PDE4 B1 inhibitory effect at 20 nM (PDE4B1) | PDE4 D2 inhibitory effect at 20 nM (PDE4D2) | IC50 (PDE4D2; read-out: PDE4 D2 inhibitory activity (IC50 value)) | inhibitory activity against PDE4A1A compared with Apremilast and WX011 (PDE4A1A) | inhibitory activity against PDE4B1 compared with Apremilast and WX011 (PDE4B1) | inhibitory activity against PDE4D2 compared with Apremilast and WX011 (PDE4D2) |
| --- | --- | --- | --- | --- | --- | --- | --- |
| CCOc1nc([C@@H](CS(C)(=O)=O)n2c(=O)[nH]c3c(C)c(-c4c(C)cccc4C)cnc32)ccc1OC [Ex. 34, (S)-6-(2,6-dimethylphenyl)-3-(1-(6-ethoxy-5-methoxypyridin-2-yl)-2-(methylsulfonyl)ethyl)-7-methyl-1H-imidazo[4,5-b]pyridin-2(3H)-one] | + | + | + |  |  |  |  |
| CCOc1nc([C@@H](CS(C)(=O)=O)n2c(=O)n(C)c3cc(-c4cc(C)ccc4C)ccc32)ccc1OC [Ex. 165, (S)-5-(2,5-dimethylphenyl)-1-(1-(6-ethoxy-5-methoxypyridin-2-yl)-2-(methylsulfonyl)ethyl)-3-methyl-1H-benzo[d]imidazol-2(3H)-one] | + | + | + |  |  |  |  |
| CCOc1nc([C@@H](CS(C)(=O)=O)n2c(=O)[nH]c3cc(-c4cc(C)ccc4F)cnc32)ccc1OC [Ex. 113, (S)-6-(2-fluoro-5-methylphenyl)-3-(1-(6-ethoxy-5-methoxypyridin-2-yl)-2-(methylsulfonyl)ethyl)-1H-imidazo[4,5-b]pyridin-2(3H)-one] | + | + | + |  |  |  |  |
| CCOc1nc([C@@H](CS(C)(=O)=O)n2c(=O)[nH]c3c(C)c(-c4ccccc4OC)cnc32)ccc1OC [Ex. 12, (S)-3-(1-(6-ethoxy-5-methoxypyridin-2-yl)-2-(methylsulfonyl)ethyl)-6-(2-methoxyphenyl)-7-methyl-1H-imidazo[4,5-b]pyridin-2(3H)-one] |  |  |  | 3.2 nM | significantly enhanced inhibitory activity | significantly enhanced inhibitory activity | significantly enhanced inhibitory activity |
| CCOc1nc([C@@H](CS(C)(=O)=O)n2c(=O)[nH]c3c(C)c(-c4cc(F)c(F)cc4F)cnc32)ccc1OC [Ex. 29, (S)-6-(2,4,5-trifluorophenyl)-3-(1-(6-ethoxy-5-methoxypyridin-2-yl)-2-(methylsulfonyl)ethyl)-7-methyl-1H-imidazo[4,5-b]pyridin-2(3H)-one] | + | + | + |  |  |  |  |
| CCOc1nc([C@@H](CS(C)(=O)=O)n2c(=O)[nH]c3cc(-c4ccccc4)cnc32)ccc1OC [Ex. 76, (S)-3-(1-(6-ethoxy-5-methoxypyridin-2-yl)-2-(methylsulfonyl)ethyl)-6-phenyl-1H-imidazo[4,5-b]pyridin-2(3H)-one] | + | + | + |  |  |  |  |
| CCOc1nc([C@@H](CS(C)(=O)=O)n2c(=O)n(C)c3cc(-c4ccc(F)cc4)cnc32)ccc1OC [Ex. 128, (S)-3-(1-(6-ethoxy-5-methoxypyridin-2-yl)-2-(methylsulfonyl)ethyl)-6-(4-fluorophenyl)-1-methyl-1H-imidazo[4,5-b]pyridin-2(3H)-one] | + | + | + |  |  |  |  |
| CCOc1nc([C@H](CS(C)(=O)=O)n2c(=O)[nH]c3c(C)c(-c4cc(F)ccc4F)cnc32)ccc1OC [Ex. 30, (R)-6-(2,5-difluorophenyl)-3-(1-(6-ethoxy-5-methoxypyridin-2-yl)-2-(methylsulfonyl)ethyl)-7-methyl-1H-imidazo[4,5-b]pyridin-2(3H)-one] | − | − | − |  | significantly enhanced inhibitory activity | significantly enhanced inhibitory activity | significantly enhanced inhibitory activity |
| CCOc1nc([C@@H](CS(C)(=O)=O)n2c(=O)n(C)c3cc(-c4cccc(F)c4F)ccc32)ccc1OC [Ex. 153, (S)-5-(2,3-difluorophenyl)-1-(1-(6-ethoxy-5-methoxypyridin-2-yl)-2-(methylsulfonyl)ethyl)-3-methyl-1H-benzo[d]imidazol-2(3H)-one] | + | + | + |  |  |  |  |
| CCOc1nc([C@@H](CS(C)(=O)=O)n2c(=O)n(C)c3cc(-c4cc(F)ccc4C)ccc32)ccc1OC [Ex. 172, (S)-5-(5-fluoro-2-methylphenyl)-1-(1-(6-ethoxy-5-methoxypyridin-2-yl)-2-(methylsulfonyl)ethyl)-3-methyl-1H-benzo[d]imidazol-2(3H)-one] | + | + | + |  |  |  |  |
| CCOc1nc([C@@H](CS(C)(=O)=O)n2c(=O)[nH]c3cc(-c4ccc(F)cc4C)cnc32)ccc1OC [Ex. 107, (S)-6-(4-fluoro-2-methylphenyl)-3-(1-(6-ethoxy-5-methoxypyridin-2-yl)-2-(methylsulfonyl)ethyl)-1H-imidazo[4,5-b]pyridin-2(3H)-one] | + | + | + |  |  |  |  |

Continued, in another order:

| PDE4 A1 inhibitory effect at 20 nM (PDE4A1A) | PDE4 B1 inhibitory effect at 20 nM (PDE4B1) | PDE4 D2 inhibitory effect at 20 nM (PDE4D2) | IC50 (PDE4D2; read-out: PDE4 D2 inhibitory activity (IC50 value)) | Structure (SMILES) | inhibitory activity against PDE4A1A compared with Apremilast and WX011 (PDE4A1A) | inhibitory activity against PDE4B1 compared with Apremilast and WX011 (PDE4B1) | inhibitory activity against PDE4D2 compared with Apremilast and WX011 (PDE4D2) |
| --- | --- | --- | --- | --- | --- | --- | --- |
| + | + | + |  | CCOc1nc([C@@H](CS(C)(=O)=O)n2c(=O)[nH]c3cc(-c4cc(C)ccc4F)ccc32)ccc1OC [Ex. 175, (S)-5-(2-fluoro-5-methylphenyl)-1-(1-(6-ethoxy-5-methoxypyridin-2-yl)-2-(methylsulfonyl)ethyl)-1H-benzo[d]imidazol-2(3H)-one] |  |  |  |
| + | + | + |  | CCOc1nc([C@@H](CS(C)(=O)=O)n2c(=O)[nH]c3cc(-c4c(F)cccc4OC)ccc32)ccc1OC [Ex. 190, (S)-5-(6-fluoro-2-methoxyphenyl)-1-(1-(6-ethoxy-5-methoxypyridin-2-yl)-2-(methylsulfonyl)ethyl)-1H-benzo[d]imidazol-2(3H)-one] |  |  |  |
| + | + | + |  | CCOc1nc([C@@H](CS(C)(=O)=O)n2c(=O)[nH]c3c(-c4ccccc4)cccc32)ccc1OC [Ex. 206, (S)-1-(1-(6-ethoxy-5-methoxypyridin-2-yl)-2-(methylsulfonyl)ethyl)-4-phenyl-1H-benzo[d]imidazol-2(3H)-one] |  |  |  |
| + | + | + |  | CCOc1nc([C@@H](CS(C)(=O)=O)n2c(=O)n(C)c3cc(-c4ccc(C)cc4F)ccc32)ccc1OC [Ex. 180, (S)-5-(2-fluoro-4-methylphenyl)-1-(1-(6-ethoxy-5-methoxypyridin-2-yl)-2-(methylsulfonyl)ethyl)-3-methyl-1H-benzo[d]imidazol-2(3H)-one] |  |  |  |
| + | + | + |  | CCOc1nc([C@@H](CS(C)(=O)=O)n2c(=O)[nH]c3c(Cc4ccccc4F)cccc32)ccc1OC [Ex. 207, (S)-1-(1-(6-ethoxy-5-methoxypyridin-2-yl)-2-(methylsulfonyl)ethyl)-4-(2-fluorobenzyl)-1H-benzo[d]imidazol-2(3H)-one] |  |  |  |

From patent publication US20230141101A1, “PDE4 INHIBITOR COMPOUND AND MEDICAL USE THEREOF” (Suzhou Longbotai Pharmaceuticals Co., Ltd., priority 2020, published 2023)
